Like-named read-outs stand apart in the source and are kept apart here. Square brackets hold non-standard residues; d marks the D form. Side chains are listed from the residue outwards. Peptide text beside a SMILES is read from it. * marks the point of attachment. X1 = O=C(COc1ccc(/C=C/C2=[N+]3C(=Cc4ccc(-c5cccs5)n4[B-]3(F)F)C=C2)cc1)*; Propanoyl(3-Pip(4-O-2-BnPh)) = O=C(CCN1CCC(Oc2ccccc2Cc2ccccc2)CC1)*; X3 = Cc1cc(C)n2c1C=C1C=CC(/C=C/c3ccc(OCC(=O)*)cc3)=[N+]1[B-]2(F)F; BODIPY(FL) = CC1=CC(C)=[N+]2C1=Cc1ccc(CCC(=O)*)n1[B-]2(F)F; X2 = O=C(CCC1=[N+]2C(=Cc3ccc(-c4cccs4)n3[B-]2(F)F)C=C1)*; Ahx = NCCCCCC(=O)O; βAla = NCCC(=O)O
How the values were obtained:
[1] = target: T1, human H1R (Homo sapiens, UniProt P35367); assay: Ca2+ mobilization assay on human H1R-expressing CHO cells; format: cell-based; conditions: Gaddum equation, shift in histamine EC25 with 1 μM antagonist
T1 construct: expressed in transfected cells; host or cells: CHO cells
T1 sequence (P35367 whole entry): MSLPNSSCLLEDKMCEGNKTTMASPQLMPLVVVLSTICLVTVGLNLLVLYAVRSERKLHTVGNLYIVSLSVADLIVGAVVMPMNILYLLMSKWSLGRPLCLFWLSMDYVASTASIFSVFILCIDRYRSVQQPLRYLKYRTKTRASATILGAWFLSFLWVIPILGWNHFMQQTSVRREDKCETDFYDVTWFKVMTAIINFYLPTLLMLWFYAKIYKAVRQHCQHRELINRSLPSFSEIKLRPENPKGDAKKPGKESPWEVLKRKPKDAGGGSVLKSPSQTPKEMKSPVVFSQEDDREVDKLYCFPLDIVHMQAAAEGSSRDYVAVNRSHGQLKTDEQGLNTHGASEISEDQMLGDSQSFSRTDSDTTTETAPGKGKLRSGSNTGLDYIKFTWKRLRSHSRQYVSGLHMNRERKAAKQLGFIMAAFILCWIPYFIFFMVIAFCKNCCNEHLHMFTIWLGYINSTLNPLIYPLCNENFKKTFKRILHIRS
Procedure: CHO cells expressing H1R were grown to confluence in black-walled, clear-bottom 96-well plates. On the day of the experiment, media were replaced with 100 μL of HBSS containing […], 2.3 μM Fluo-4AM (Invitrogen), 0.023% Pluronic F-127, 0.5 mM Brilliant Black BN, and 1 μM required fluorescent ligand and the plates incubated for 1 h at 37 °C in the dark. The plates were then placed in the multi-well fluorometric imaging plate reader FlexStation3 (Molecular Devices, Sunnyvale, CA) and HBSS only or HBSS containing the required concentration of histamine was added after 15 s. Fluo-4 fluorescence was measured at 520 nm (excitation at 485 nm) every 1.52 s for 200 s. For each well, the peak maximum–minimum–maximum change in fluorescence value was taken and plotted against concentration of histamine to give a dose–response curve.
Estimated affinity values (pKB) were calculated from the shift in agonist concentration–response curves in the presence of the fluorescent antagonists using the Gaddum equation (7): [drawing 10] 7 where DR (dose ratio) is the ratio of the agonist concentration required to stimulate an identical response in the presence and absence of antagonist, [B]. DR was determined from the EC25 value as there was a decrease in observed maximal efficacy of histamine in the presence of all 10 fluorescent antagonists.

[2] = target: Nluc-H1R (Homo sapiens, UniProt P35367); assay: NanoBRET saturation binding assay on Nluc-H1R expressing HEK293T cells; design: expressed in transfected cells; conditions: saturation binding curves, whole HEK293T cells; for pKD: non-specific with 10 μM mepyramine, mean ± SEM
Chain of Nluc-H1R (P35367 whole entry): as above
From the text: Total and non-specific saturation binding curves from NanoBRET saturation binding assay were fitted simultaneously using eq 1: [drawing 4] 1 where Bmax is the maximal specific binding, [B] is the concentration of fluorescent ligand in nM, KD is the equilibrium dissociation constant in nM, M is the slope of the non-specific component, and C is the intercept with the Y axis.

| Compound | Kb ([1]; mean ± SEM, four experiments, read-out: pKB (converted)) | Kd [2] | pKD [2] | Kb ([1]; read-out: KB (converted)) |
| --- | --- | --- | --- | --- |
| Cc1cc(C)n2c1C=C1C=CC(/C=C/c3ccc(OCC(=O)NCCCC[C@H](NC(=O)CCNC(=O)[C@H](CC(N)=O)NC(=O)[C@H](CO)NC(=O)[C@@H](NC(=O)CCN4CCC(Oc5ccccc5Cc5ccccc5)CC4)C(C)C)C(N)=O)cc3)=[N+]1[B-]2(F)F [Compound 38b, (S)-N^1-(3-(((S)-1-Amino-6-(2-(4-((E)-2-(5,5-difluoro-7,9-dimethyl-5H-5λ^4,6λ^4-dipyrrolo[1,2-c:2’,1’-f][1,3,2]diazaborinin-3-yl)vinyl)phenoxy)acetamido)-1-oxohexan-2-yl)amino)-3-oxopropyl)-2-((S)-2-((S)-2-(3-(4-(2-benzylphenoxy)piperidin-1-yl)propanamido)-3-methylbutanamido)-3-hydroxypropanamido)succinamide] ({Propanoyl(3-Pip(4-O-2-BnPh))}-VSN[βAla]K(X3)-NH2) | 110 nM | 66 nM | 7.18 ± 0.11 | – |
| CC(C)[C@H](NC(=O)CCN1CCC(Oc2ccccc2Cc2ccccc2)CC1)C(=O)N[C@@H](CO)C(=O)N[C@@H](CC(N)=O)C(=O)NCCC(=O)N[C@@H](CCCCNC(=O)CCC1=[N+]2C(=Cc3ccc(-c4cccs4)n3[B-]2(F)F)C=C1)C(N)=O [Compound 38c, (S)-N^1-(3-(((S)-1-Amino-6-(3-(5,5-difluoro-7-(thiophen-2-yl)-5H-5λ^4,6λ^4-dipyrrolo[1,2-c:2’,1’-f][1,3,2]diazaborinin-3-yl)propanamido)-1-oxohexan-2-yl)amino)-3-oxopropyl)-2-((S)-2-((S)-2-(3-(4-(2-benzylphenoxy)piperidin-1-yl)propanamido)-3-methylbutanamido)-3-hydroxypropanamido)succinamide] ({Propanoyl(3-Pip(4-O-2-BnPh))}-VSN[βAla]K(X2)-NH2) | – | 209 nM | 6.68 ± 0.10 | 302 nM |
| Cc1cc(C)n2c1C=C1C=CC(CCC(=O)NCCCC[C@H](NC(=O)CCNC(=O)[C@H](CC(N)=O)NC(=O)[C@H](CO)NC(=O)[C@@H](NC(=O)CCN3CCC(Oc4ccccc4Cc4ccccc4)CC3)C(C)C)C(N)=O)=[N+]1[B-]2(F)F [Compound 38d, (S)-N^1-(3-(((S)-1-Amino-6-(3-(5,5-difluoro-7,9-dimethyl-5H-4λ^4,5λ^4-dipyrrolo[1,2-c:2’,1’-f][1,3,2]diazaborinin-3-yl)propanamido)-1-oxohexan-2-yl)amino)-3-oxopropyl)-2-((S)-2-((S)-2-(3-(4-(2-benzylphenoxy)piperidin-1-yl)propanamido)-3-methylbutanamido)-3-hydroxypropanamido)succinamide] ({Propanoyl(3-Pip(4-O-2-BnPh))}-VSN[βAla]K(BODIPY(FL))-NH2) | – | 1290 nM | 5.89 ± 0.10 | 112 nM |
| Cc1cc(C)n2c1C=C1C=CC(CCC(=O)NCCCCCC(=O)NCCCC[C@H](NC(=O)CCNC(=O)[C@H](CC(N)=O)NC(=O)[C@H](CO)NC(=O)[C@@H](NC(=O)CCN3CCC(Oc4ccccc4Cc4ccccc4)CC3)C(C)C)C(N)=O)=[N+]1[B-]2(F)F [Compound 38e, (S)-N^1-(3-(((S)-1-Amino-6-(6-(3-(5,5-difluoro-7,9-dimethyl-5H-4λ^4,5λ^4-dipyrrolo[1,2-c:2’,1’-f][1,3,2]diazaborinin-3-yl)propanamido)hexanamido)-1-oxohexan-2-yl)amino)-3-oxopropyl)-2-((S)-2-((S)-2-(3-(4-(2-benzylphenoxy)piperidin-1-yl)propanamido)-3-methylbutanamido)-3-hydroxypropanamido)succinamide] ({Propanoyl(3-Pip(4-O-2-BnPh))}-VSN[βAla]K([Ahx-BODIPY(FL)])-NH2) | – | 5250 nM | 5.28 ± 0.06 | – |
| CC(C)[C@H](NC(=O)CCN1CCC(Oc2ccccc2Cc2ccccc2)CC1)C(=O)N[C@@H](CO)C(=O)N[C@@H](CC(N)=O)C(=O)NCCC(=O)N[C@@H](CCCCNC(=O)CCCCC[N+]1=C(/C=C/C=C/C=C2/N(C)c3ccc(S(=O)(=O)[O-])cc3C2(C)C)C(C)(C)c2cc(S(=O)(=O)O)ccc21)C(N)=O [Compound 38f, 1-((5S,8S,11S,18S)-11-(2-Amino-2-oxoethyl)-1-(4-(2-benzylphenoxy)piperidin-1-yl)-18-carbamoyl-8-(hydroxymethyl)-5-isopropyl-3,6,9,12,16,24-hexaoxo-4,7,10,13,17,23-hexaazanonacosan-29-yl)-3,3-dimethyl-2-((1E,3E)-5-((E)-1,3,3-trimethyl-5-sulfonatoindolin-2-ylidene)penta-1,3-dien-1-yl)-3H-indol-1-ium-5-sulfonate] | – | 2190 nM | 5.66 ± 0.02 | 4680 nM |
| C[C@H](NC(=O)[C@H](C)NC(=O)[C@H](Cc1ccccc1)NC(=O)CCN1CCC(Oc2ccccc2Cc2ccccc2)CC1)C(=O)NCCC(=O)N[C@@H](CCCCNC(=O)CCCCCNC(=O)COc1ccc(/C=C/C2=[N+]3C(=Cc4ccc(-c5cccs5)n4[B-]3(F)F)C=C2)cc1)C(N)=O [Compound 39a, N-((5S,8S,11S,18S)-5-Benzyl-1-(4-(2-benzylphenoxy)piperidin-1-yl)-18-carbamoyl-8,11-dimethyl-3,6,9,12,16-pentaoxo-4,7,10,13,17-pentaazadocosan-22-yl)-6-(2-(4-((E)-2-(5,5-difluoro-7-(thiophen-2-yl)-5H-4λ^4,5λ^4-dipyrrolo[1,2-c:2’,1’-f][1,3,2]diazaborinin-3-yl)vinyl)phenoxy)acetamido)hexanamide] ({Propanoyl(3-Pip(4-O-2-BnPh))}-FAA[βAla]K([Ahx-X1])-NH2) | – | 10 nM | 7.98 ± 0.01 | – |
| Cc1cc(C)n2c1C=C1C=CC(/C=C/c3ccc(OCC(=O)NCCCC[C@H](NC(=O)CCNC(=O)[C@H](C)NC(=O)[C@H](C)NC(=O)[C@H](Cc4ccccc4)NC(=O)CCN4CCC(Oc5ccccc5Cc5ccccc5)CC4)C(N)=O)cc3)=[N+]1[B-]2(F)F [Compound 39b, (S)-2-((6S,9S,12S)-12-Benzyl-16-(4-(2-benzylphenoxy)piperidin-1-yl)-6,9-dimethyl-5,8,11,14-tetraoxo-4,7,10,13-tetraazahexadecanamido)-6-(2-(4-((E)-2-(5,5-difluoro-7,9-dimethyl-5H-5λ^4,6λ^4-dipyrrolo[1,2-c:2’,1’-f][1,3,2]diazaborinin-3-yl)vinyl)phenoxy)acetamido)hexanamide] ({Propanoyl(3-Pip(4-O-2-BnPh))}-FAA[βAla]K(X3)-NH2) | – | 44 nM | 7.36 ± 0.03 | 102 nM |
| Cc1cc(C)n2c1C=C1C=CC(CCC(=O)NCCCCCC(=O)NCCCC[C@H](NC(=O)CCNC(=O)[C@H](C)NC(=O)[C@H](C)NC(=O)[C@H](Cc3ccccc3)NC(=O)CCN3CCC(Oc4ccccc4Cc4ccccc4)CC3)C(N)=O)=[N+]1[B-]2(F)F [Compound 39e, N-((5S,8S,11S,18S)-5-Benzyl-1-(4-(2-benzylphenoxy)piperidin-1-yl)-18-carbamoyl-8,11-dimethyl-3,6,9,12,16-pentaoxo-4,7,10,13,17-pentaazadocosan-22-yl)-6-(3-(5,5-difluoro-7,9-dimethyl-5H-4λ^4,5λ^4-dipyrrolo[1,2-c:2’,1’-f][1,3,2]diazaborinin-3-yl)propanamido)hexanamide] ({Propanoyl(3-Pip(4-O-2-BnPh))}-FAA[βAla]K([Ahx-BODIPY(FL)])-NH2) | – | 2690 nM | 5.57 ± 0.05 | – |

Source: article PMC9234962, “Optimization of Peptide Linker-Based Fluorescent Ligands for the Histamine H1 Receptor” (Journal of Medicinal Chemistry, 2022)
